From US12357615B2, “Compositions for the treatment of brain tumors” (Kembi Therapeutics Pty Ltd, priority 2018, dated 2025)

How the values were obtained:
T98G xenograft [1] = conditions: implanted DHT pellets versus no DHT, female C.B-17 SCID mice
Protocol: T98G cancer cells were implanted into the flanks female C.B-17 SCID mice with or without implanted DHT pellets. Tumor size was measured over time. The results were plotted using Graphpad Prism.

T98G xenograft [2] = assay: Mouse T98G xenograft model, seviteronel and radiation therapy; type: in vivo
Protocol: T98G cancer cells were implanted into the flanks of DHT-bearing female C.B-17 SCID mice. After tumors reached approximately 100 mm3 in size, tumors were randomized into control, seviteronel alone (75 mg/kg for 30 days), radiation alone (2 Gy×6 fractions), or combined radiation and seviteronel treatment groups. Tumor size was measured over time and time to tumor doubling was estimated using the Kaplan-Meyer method. The results were plotted using Graphpad Prism.

[3] = test system: AM38 AR negative glioblastoma multiforme cell line; assay: GBM tumor cell line inhibition assay (colony formation), AM38; type: cell-based; conditions: AM38, AR negative GBM cells
Protocol: (§1) The term “percent colony formation” as used herein is the number of colonies after treatment with seviteronel and normalized to the number of colonies formed in the absence of seviteronel.
(§2) AR positive and AR negative GBM cells were plated at clonal density and 1-2 days later were treated with the test compounds at the indicated concentrations. After 10-12 days, the plates were stained with crystal violet. The number of colonies were then counted and normalized to the number of colonies formed in the absence of the test compounds. The results were plotted using Graphpad Prism.

[4] = test system: T98G AR positive glioblastoma multiforme cell line; assay: GBM tumor cell line inhibition assay (colony formation), T98G; type: cell-based; conditions: Homo sapiens; T98 (T98G), AR positive GBM cells, 10-12 days; read-out: GI50 (growth inhibition, colony formation)
Protocol: as §1, §2

[5] = test system: AM38 AR negative cell line; assay: Clonogenic survival after radiation with seviteronel, AM38; type: cell-based; conditions: seviteronel 2.5-5 uM 24 hours before radiation 0-8 Gy
Description: (§3) The term “surviving fraction” as used herein is the fraction of cells that retain their reproductive integrity after radiation normalized to the fraction of cells seeded and the colonies formed in the absence of irradiation
(§4) The term “enhancement ratio” as used herein is the ratio of the Dmid (the area under the radiation survival curve, which reflects the effectiveness of radiation) in the absence of seviteronel divided by the Dmid in the presence of seviteronel.
(§5) AR positive or negative GBM cell lines were treated with seviteronel (2.5-5 uM) for 24 hours prior to treatment with a single fraction of ionizing radiation (0-8 Gy) and then replated at clonal density. After 10-14 days, cells were stained with crystal violet and colonies were counted and normalized to conditions without radiation. Enhancement ratios were calculated by dividing the Dmid (the area under the clonogenic-survival curve) of control conditions by the Dmid of the seviteronel-treated cells.

[6] = test system: 8MGBA AR negative cell line; assay: Clonogenic survival after radiation with seviteronel, 8MGBA; type: cell-based; conditions: seviteronel 2.5-5 uM 24 hours before radiation 0-8 Gy
Description: as §3, §4, §5

[7] = test system: T98G AR positive cell line; assay: Clonogenic survival after radiation with seviteronel, T98G; type: cell-based; conditions: 5 μM seviteronel 24 hours before radiation 0-8 Gy
Description: as §3, §4, §5

[8] = test system: 8MGBA AR negative glioblastoma multiforme cell line; assay: GBM tumor cell line inhibition assay (colony formation), 8MGBA; type: cell-based; conditions: AR negative GBM cells
Protocol: as §1, §2

[9] = test system: LN18 AR positive cell line; assay: Clonogenic survival after radiation with seviteronel, LN18; type: cell-based; conditions: 2.5 μM seviteronel 24 hours before radiation 0-8 Gy
Description: as §3, §4, §5

Structure (SMILES) | tumor volume over time (T98G xenograft [1]) | tumor volume increase over 35 days (T98G xenograft [2]; seviteronel 75 mg/kg days 1-30 plus radiation therapy 2 Gy x 6 fractions days 2-7) | mice with doubling in tumor volume after 30 days (T98G xenograft [2]; seviteronel 75 mg/kg plus radiation therapy 2 Gy x 6 fractions) | tumor volume increase over 35 days (T98G xenograft [2]; seviteronel alone, 75 mg/kg for 30 days, untreated approximately 5 fold) | time to tumor doubling (T98G xenograft [2]; seviteronel alone, 75 mg/kg for 30 days, untreated within 15 days) | effect on growth [3] | GI50 [4] | enhancement ratio (Dmid without / with seviteronel) [5] | enhancement ratio (Dmid without / with seviteronel) [6] | enhancement ratio (Dmid without / with seviteronel) [7] | effect on growth [8] | enhancement ratio (Dmid without / with seviteronel) [9]
C[C@]12CCC(=O)C[C@@H]1CC[C@@H]1[C@@H]2CC[C@]2(C)[C@@H](O)CC[C@@H]12 [DHT, Dihydrotestosterone] | increased more rapidly | – | – | – | – | – | – | – | – | – | – | –
CC(C)[C@](O)(c1ccc2cc(OC(F)F)c(OC(F)F)cc2c1)c1c[nH]nn1 [seviteronel] | – | approximately 50% | none | 2-3 fold | ≤ 30 days | little to no effect | 4 µM | 1.03 | 1.0 | 1.32 | little to no effect | 1.5
